± gives the uncertainty stated by the source.
Test: xn = mol fraction of the nth substance listed

CC(=O)[O-].CC[NH+](CC)CC + CS(C)=O
viscosity (298.15 K, 101 kPa, x2 = 0): 24.12 ± 0.61 mPa·s | viscosity (298.15 K, 101 kPa, x2 = 0.0534): 22.91 ± 0.58 mPa·s | viscosity (298.15 K, 101 kPa, x2 = 0.0936): 22.01 ± 0.56 mPa·s | viscosity (298.15 K, 101 kPa, x2 = 0.1496): 20.75 ± 0.53 mPa·s | viscosity (298.15 K, 101 kPa, x2 = 0.1837): 19.99 ± 0.51 mPa·s | viscosity (298.15 K, 101 kPa, x2 = 0.2154): 19.28 ± 0.49 mPa·s | viscosity (298.15 K, 101 kPa, x2 = 0.2836): 17.76 ± 0.45 mPa·s | viscosity (298.15 K, 101 kPa, x2 = 0.3204): 16.94 ± 0.43 mPa·s | viscosity (298.15 K, 101 kPa, x2 = 0.3837): 15.53 ± 0.4 mPa·s | viscosity (298.15 K, 101 kPa, x2 = 0.4536): 13.97 ± 0.36 mPa·s | viscosity (298.15 K, 101 kPa, x2 = 0.5169): 12.56 ± 0.32 mPa·s | viscosity (298.15 K, 101 kPa, x2 = 0.5647): 11.49 ± 0.3 mPa·s | viscosity (298.15 K, 101 kPa, x2 = 0.6447): 9.71 ± 0.25 mPa·s | viscosity (298.15 K, 101 kPa, x2 = 0.7301): 7.81 ± 0.2 mPa·s | viscosity (298.15 K, 101 kPa, x2 = 0.7884): 6.52 ± 0.17 mPa·s | viscosity (298.15 K, 101 kPa, x2 = 0.839): 5.41 ± 0.15 mPa·s | viscosity (298.15 K, 101 kPa, x2 = 0.8848): 4.42 ± 0.12 mPa·s | viscosity (298.15 K, 101 kPa, x2 = 0.9121): 3.84 ± 0.11 mPa·s | viscosity (298.15 K, 101 kPa, x2 = 0.9393): 3.26 ± 0.09 mPa·s | viscosity (298.15 K, 101 kPa, x2 = 0.9649): 2.72 ± 0.08 mPa·s | viscosity (298.15 K, 101 kPa, x2 = 0.9764): 2.48 ± 0.07 mPa·s | viscosity (303.15 K, 101 kPa, x2 = 0): 19.64 ± 0.5 mPa·s | viscosity (303.15 K, 101 kPa, x2 = 0.0534): 18.67 ± 0.48 mPa·s | viscosity (303.15 K, 101 kPa, x2 = 0.0936): 17.94 ± 0.46 mPa·s | viscosity (303.15 K, 101 kPa, x2 = 0.1496): 16.93 ± 0.43 mPa·s | viscosity (303.15 K, 101 kPa, x2 = 0.1837): 16.31 ± 0.42 mPa·s | viscosity (303.15 K, 101 kPa, x2 = 0.2154): 15.74 ± 0.4 mPa·s | viscosity (303.15 K, 101 kPa, x2 = 0.2836): 14.51 ± 0.37 mPa·s | viscosity (303.15 K, 101 kPa, x2 = 0.3204): 13.85 ± 0.36 mPa·s | viscosity (303.15 K, 101 kPa, x2 = 0.3837): 12.71 ± 0.33 mPa·s | viscosity (303.15 K, 101 kPa, x2 = 0.4536): 11.45 ± 0.3 mPa·s | viscosity (303.15 K, 101 kPa, x2 = 0.5169): 10.31 ± 0.27 mPa·s | viscosity (303.15 K, 101 kPa, x2 = 0.5647): 9.45 ± 0.25 mPa·s | viscosity (303.15 K, 101 kPa, x2 = 0.6447): 8.01 ± 0.21 mPa·s | viscosity (303.15 K, 101 kPa, x2 = 0.7301): 6.48 ± 0.17 mPa·s | viscosity (303.15 K, 101 kPa, x2 = 0.7884): 5.44 ± 0.15 mPa·s | viscosity (303.15 K, 101 kPa, x2 = 0.839): 4.55 ± 0.12 mPa·s | viscosity (303.15 K, 101 kPa, x2 = 0.8848): 3.76 ± 0.1 mPa·s | viscosity (303.15 K, 101 kPa, x2 = 0.9121): 3.29 ± 0.09 mPa·s | viscosity (303.15 K, 101 kPa, x2 = 0.9393): 2.82 ± 0.08 mPa·s | viscosity (303.15 K, 101 kPa, x2 = 0.9649): 2.39 ± 0.07 mPa·s | viscosity (303.15 K, 101 kPa, x2 = 0.9764): 2.2 ± 0.07 mPa·s | viscosity (308.15 K, 101 kPa, x2 = 0): 16.13 ± 0.41 mPa·s | viscosity (308.15 K, 101 kPa, x2 = 0.0534): 15.35 ± 0.39 mPa·s | viscosity (308.15 K, 101 kPa, x2 = 0.0936): 14.76 ± 0.38 mPa·s | viscosity (308.15 K, 101 kPa, x2 = 0.1496): 13.94 ± 0.36 mPa·s | viscosity (308.15 K, 101 kPa, x2 = 0.1837): 13.44 ± 0.34 mPa·s | viscosity (308.15 K, 101 kPa, x2 = 0.2154): 12.98 ± 0.33 mPa·s | viscosity (308.15 K, 101 kPa, x2 = 0.2836): 11.98 ± 0.31 mPa·s | viscosity (308.15 K, 101 kPa, x2 = 0.3204): 11.44 ± 0.29 mPa·s | viscosity (308.15 K, 101 kPa, x2 = 0.3837): 10.51 ± 0.27 mPa·s | viscosity (308.15 K, 101 kPa, x2 = 0.4536): 9.49 ± 0.25 mPa·s | viscosity (308.15 K, 101 kPa, x2 = 0.5169): 8.56 ± 0.22 mPa·s | viscosity (308.15 K, 101 kPa, x2 = 0.5647): 7.86 ± 0.21 mPa·s | viscosity (308.15 K, 101 kPa, x2 = 0.6447): 6.69 ± 0.18 mPa·s | viscosity (308.15 K, 101 kPa, x2 = 0.7301): 5.45 ± 0.15 mPa·s | viscosity (308.15 K, 101 kPa, x2 = 0.7884): 4.61 ± 0.12 mPa·s | viscosity (308.15 K, 101 kPa, x2 = 0.839): 3.89 ± 0.11 mPa·s | viscosity (308.15 K, 101 kPa, x2 = 0.8848): 3.24 ± 0.09 mPa·s | viscosity (308.15 K, 101 kPa, x2 = 0.9121): 2.86 ± 0.08 mPa·s | viscosity (308.15 K, 101 kPa, x2 = 0.9393): 2.48 ± 0.07 mPa·s | viscosity (308.15 K, 101 kPa, x2 = 0.9649): 2.13 ± 0.06 mPa·s | viscosity (308.15 K, 101 kPa, x2 = 0.9764): 1.98 ± 0.06 mPa·s

O=C(O)CC(O)(CC(=O)O)C(=O)O + C[N+](C)(C)Cc1ccccc1.[Cl-]
electrical conductivity (293.15 K, 101 kPa, x2 = 0.5): 3.3e-05 ± 1e-06 S/m | electrical conductivity (298.09 K, 101 kPa, x2 = 0.5): 3.9e-05 ± 1e-06 S/m | electrical conductivity (303.11 K, 101 kPa, x2 = 0.5): 0.000162 ± 1e-06 S/m | electrical conductivity (308.2 K, 101 kPa, x2 = 0.5): 0.000519 ± 1e-06 S/m | viscosity (312.91 K, 101 kPa, x2 = 0.5): 237000 ± 35000 mPa·s | electrical conductivity (313.21 K, 101 kPa, x2 = 0.5): 0.00111 ± 1e-06 S/m | electrical conductivity (318.06 K, 101 kPa, x2 = 0.5): 0.001906 ± 1e-06 S/m | viscosity (327.86 K, 101 kPa, x2 = 0.5): 52100 ± 6400 mPa·s | electrical conductivity (328.14 K, 101 kPa, x2 = 0.5): 0.005576 ± 1e-06 S/m | electrical conductivity (333.12 K, 101 kPa, x2 = 0.5): 0.009475 ± 1e-06 S/m

CCCC[N+]1(C)CCCC1.O=S(=O)([O-])C(F)(F)F + O
electrical conductivity (288.15 K, 100 kPa, x2 = 0.0597): 0.147 ± 0.003 S/m | viscosity (288.15 K, 100 kPa, x2 = 0.0597): 241.7 ± 6.9 mPa·s | electrical conductivity (288.15 K, 100 kPa, x2 = 0.3197): 0.297 ± 0.006 S/m | viscosity (288.15 K, 100 kPa, x2 = 0.3197): 98.4 ± 2.2 mPa·s | electrical conductivity (288.15 K, 100 kPa, x2 = 0.3766): 0.344 ± 0.007 S/m | viscosity (288.15 K, 100 kPa, x2 = 0.3766): 81.5 ± 1.7 mPa·s | electrical conductivity (288.15 K, 100 kPa, x2 = 0.7673): 1.04 ± 0.021 S/m | viscosity (288.15 K, 100 kPa, x2 = 0.7673): 18.66 ± 0.38 mPa·s | electrical conductivity (293.15 K, 100 kPa, x2 = 0.3197): 0.368 ± 0.007 S/m | viscosity (293.15 K, 100 kPa, x2 = 0.3197): 76.9 ± 1.6 mPa·s | electrical conductivity (293.15 K, 100 kPa, x2 = 0.8612): 1.72 ± 0.034 S/m | viscosity (293.15 K, 100 kPa, x2 = 0.8612): 8.54 ± 0.17 mPa·s | electrical conductivity (298.15 K, 100 kPa, x2 = 0.0597): 0.238 ± 0.005 S/m | viscosity (298.15 K, 100 kPa, x2 = 0.0597): 138.8 ± 3.4 mPa·s | electrical conductivity (298.15 K, 100 kPa, x2 = 0.3766): 0.521 ± 0.01 S/m | viscosity (298.15 K, 100 kPa, x2 = 0.3766): 51.2 ± 1 mPa·s | electrical conductivity (298.15 K, 100 kPa, x2 = 0.6794): 1.15 ± 0.023 S/m | viscosity (298.15 K, 100 kPa, x2 = 0.6794): 18.33 ± 0.37 mPa·s | electrical conductivity (298.15 K, 100 kPa, x2 = 0.7673): 1.51 ± 0.03 S/m | viscosity (298.15 K, 100 kPa, x2 = 0.7673): 12.54 ± 0.26 mPa·s | electrical conductivity (298.15 K, 100 kPa, x2 = 0.95): 2.4 ± 0.048 S/m | viscosity (298.15 K, 100 kPa, x2 = 0.95): 2.88 ± 0.06 mPa·s | electrical conductivity (303.15 K, 100 kPa, x2 = 0.3766): 0.623 ± 0.013 S/m | viscosity (303.15 K, 100 kPa, x2 = 0.3766): 41.65 ± 0.85 mPa·s | electrical conductivity (303.15 K, 100 kPa, x2 = 0.95): 2.77 ± 0.055 S/m | viscosity (303.15 K, 100 kPa, x2 = 0.95): 2.49 ± 0.05 mPa·s | electrical conductivity (308.15 K, 100 kPa, x2 = 0.1203): 0.415 ± 0.008 S/m | viscosity (308.15 K, 100 kPa, x2 = 0.1203): 72.5 ± 1.5 mPa·s | electrical conductivity (308.15 K, 100 kPa, x2 = 0.3766): 0.736 ± 0.015 S/m | viscosity (308.15 K, 100 kPa, x2 = 0.3766): 34.31 ± 0.7 mPa·s | electrical conductivity (313.15 K, 100 kPa, x2 = 0.1956): 0.581 ± 0.012 S/m | viscosity (313.15 K, 100 kPa, x2 = 0.1956): 47.98 ± 0.99 mPa·s | electrical conductivity (313.15 K, 100 kPa, x2 = 0.5819): 1.42 ± 0.028 S/m | viscosity (313.15 K, 100 kPa, x2 = 0.5819): 15.25 ± 0.31 mPa·s | electrical conductivity (318.15 K, 100 kPa, x2 = 0.1203): 0.586 ± 0.012 S/m | viscosity (318.15 K, 100 kPa, x2 = 0.1203): 48.5 ± 1 mPa·s | electrical conductivity (318.15 K, 100 kPa, x2 = 0.3197): 0.89 ± 0.018 S/m | viscosity (318.15 K, 100 kPa, x2 = 0.3197): 28.23 ± 0.58 mPa·s | electrical conductivity (323.15 K, 100 kPa, x2 = 0.0597): 0.612 ± 0.012 S/m | viscosity (323.15 K, 100 kPa, x2 = 0.0597): 46.94 ± 0.98 mPa·s | electrical conductivity (323.15 K, 100 kPa, x2 = 0.1956): 0.795 ± 0.016 S/m | viscosity (323.15 K, 100 kPa, x2 = 0.1956): 33.42 ± 0.69 mPa·s | electrical conductivity (323.15 K, 100 kPa, x2 = 0.5819): 1.87 ± 0.037 S/m | viscosity (323.15 K, 100 kPa, x2 = 0.5819): 11.25 ± 0.23 mPa·s | electrical conductivity (323.15 K, 100 kPa, x2 = 0.6794): 2.43 ± 0.049 S/m | viscosity (323.15 K, 100 kPa, x2 = 0.6794): 8.12 ± 0.17 mPa·s | electrical conductivity (323.15 K, 100 kPa, x2 = 0.95): 4.45 ± 0.089 S/m | viscosity (323.15 K, 100 kPa, x2 = 0.95): 1.52 ± 0.03 mPa·s | electrical conductivity (328.15 K, 100 kPa, x2 = 0.3766): 1.31 ± 0.026 S/m | viscosity (328.15 K, 100 kPa, x2 = 0.3766): 17.72 ± 0.36 mPa·s | electrical conductivity (333.15 K, 100 kPa, x2 = 0.5819): 2.41 ± 0.048 S/m | viscosity (333.15 K, 100 kPa, x2 = 0.5819): 8.59 ± 0.18 mPa·s
